In patent US20170313669A1, “LACTONE COMPOUNDS AND METHODS OF MAKING AND USING SAME” (THE SCRIPPS RESEARCH INSTITUTE, priority 2015, published 2017):

Legend:
Format in all cases: biochemical
ABHD16A (mouse) = target: T1, ABHD16A (mouse) (Mus musculus, UniProt Q9Z1Q2); assay: Lipid substrate hydrolysis assay, murine ABHD16A-transfected HEK293T membrane proteome; settings: substrate 100 μM
T1 construct: full-length cDNA of human ABHD16A (Open Biosystems Catalog # MHS6278-202758315) or murine ABHD16A (Open Biosystems Catalog # MMM1013-202760516) in pCMV-SPORT6 vector; host or cells: HEK293T
T1 sequence (Q9Z1Q2 whole entry): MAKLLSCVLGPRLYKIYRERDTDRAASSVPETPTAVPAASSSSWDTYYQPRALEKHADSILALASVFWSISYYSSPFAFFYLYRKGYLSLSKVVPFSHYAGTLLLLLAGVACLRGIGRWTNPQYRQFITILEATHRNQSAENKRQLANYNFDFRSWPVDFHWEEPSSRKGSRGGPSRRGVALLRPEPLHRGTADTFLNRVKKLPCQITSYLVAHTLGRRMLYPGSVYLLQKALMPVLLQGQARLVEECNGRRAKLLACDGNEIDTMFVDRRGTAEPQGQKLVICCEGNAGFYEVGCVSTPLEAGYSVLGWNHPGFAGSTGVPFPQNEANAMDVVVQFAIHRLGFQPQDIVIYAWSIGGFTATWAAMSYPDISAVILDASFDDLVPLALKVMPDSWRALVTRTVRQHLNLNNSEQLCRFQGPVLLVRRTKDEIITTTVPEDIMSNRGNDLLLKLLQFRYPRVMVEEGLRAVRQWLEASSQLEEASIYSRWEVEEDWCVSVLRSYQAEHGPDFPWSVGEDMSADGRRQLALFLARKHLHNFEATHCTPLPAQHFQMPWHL
Description: (§1) All the lipid species used in the lipid substrate hydrolysis assays were purchased from Avanti Polar Lipids Inc unless mentioned otherwise. In general, 20 μg of proteome was incubated with 100 μM lipid in a reaction volume of 100 μL in PBS at 30° C. with constant shaking. After 30 minutes the reaction was quenched with 350 μL of 2:1 (vol/vol) CHCl3: MeOH, doped with 0.5 nmol internal standard (17:1 FFA). The mixture was vortexed, and the centrifuged at 2800×g for 5 minutes to separate the aqueous (top) and organic (bottom) phase. The organic phase was collected. 5 μL of formic acid was added to the aqueous phase, and extracted again using 350 μL of 2:1 (vol/vol) CHCl3: MeOH using above mentioned protocol. The organic phase was collected, and pooled with the organic phase from the first extraction. […] All the data was collected and analyzed using the Agilent MassHunter Workstation software version B.04 using the Data Acquisition and Quantitative Analysis programs respectively. Measuring the area under the peak, and normalizing it to the internal standard quantified the product release for the lipid substrate hydrolysis assays. […] Some products from the substrate hydrolysis assays were detected in positive ion mode for qualitative identification. […]

[1] = Lipid substrate hydrolysis assay, mock-transfected HEK293T membrane proteome; settings: substrate 100 μM
Description: as §1

[2] = target: T2, ABHD16A (WT and S355A mutant) (Homo sapiens, UniProt O95870); assay: Activity-dependent labeling of ABHD16A by WHP01 in transfected HEK293T lysates; settings: transfected HEK293T cell lysates
T2 construct: All full-length cDNA constructs coding for serine hydrolases ABHD16A, and ABHD12 were purchased from Open Biosystems; FLAG; expressed in transfected cells; host or cells: HEK293T
T2 sequence (O95870 whole entry S355A): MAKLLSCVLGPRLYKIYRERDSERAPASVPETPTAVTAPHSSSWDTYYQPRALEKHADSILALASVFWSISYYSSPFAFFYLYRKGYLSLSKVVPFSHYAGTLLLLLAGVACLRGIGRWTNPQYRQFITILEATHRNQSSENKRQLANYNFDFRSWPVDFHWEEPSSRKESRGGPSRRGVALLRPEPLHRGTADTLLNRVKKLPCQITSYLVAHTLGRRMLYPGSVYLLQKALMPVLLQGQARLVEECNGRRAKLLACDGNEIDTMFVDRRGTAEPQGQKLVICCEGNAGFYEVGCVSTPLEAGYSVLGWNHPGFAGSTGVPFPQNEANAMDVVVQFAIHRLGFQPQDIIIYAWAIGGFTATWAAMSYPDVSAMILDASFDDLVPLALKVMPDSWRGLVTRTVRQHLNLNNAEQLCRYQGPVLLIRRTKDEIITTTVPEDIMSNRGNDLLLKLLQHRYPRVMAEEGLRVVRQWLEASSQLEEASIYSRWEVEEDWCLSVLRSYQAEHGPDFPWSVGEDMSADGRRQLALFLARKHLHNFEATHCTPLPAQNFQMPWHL

Compound	Lipase activity, ABHD16A, Mean (ABHD16A (mouse))	Lipase activity, Mock, Mean [1]	labeling of ABHD16A [2]
PG 16:0/18:1	12.5 nmol/mg/min	3.8 nmol/mg/min	
CCCCCCCCCCCCCC1OC(=O)/C1=C\CCCC(=O)NCCCCCNC(=O)c1ccc(-c2c3ccc(=[N+](C)C)cc-3oc3cc(N(C)C)ccc23)c(C(=O)[O-])c1 (stereo not drawn) [WHP01, (Z)-2-(6-(dimethylamino)-3-(dimethyliminio)-3H-xanthen-9-yl)-5-((5-(5-(2-oxo-4-tridecyloxetan-3-ylidene)pentanamido)pentyl)carbamoyl)benzoate]			labeled WT-ABHD16A but not the catalytic serine S355A mutant
